Experimental findings from US20060110385A1, “Means and methods for diagnosing and treating affective disorders” (Affectis Pharmaceuticals AG, priority 2003, published 2006) are described below.

Test [1] deals with T1, P2X7R (Mus musculus, UniProt Q9Z1M0).
T1 construct: endogenous in cells; host or cells: HT-22 (immortalised mouse hippocampal cell line)
T1 sequence (Q9Z1M0 1-595): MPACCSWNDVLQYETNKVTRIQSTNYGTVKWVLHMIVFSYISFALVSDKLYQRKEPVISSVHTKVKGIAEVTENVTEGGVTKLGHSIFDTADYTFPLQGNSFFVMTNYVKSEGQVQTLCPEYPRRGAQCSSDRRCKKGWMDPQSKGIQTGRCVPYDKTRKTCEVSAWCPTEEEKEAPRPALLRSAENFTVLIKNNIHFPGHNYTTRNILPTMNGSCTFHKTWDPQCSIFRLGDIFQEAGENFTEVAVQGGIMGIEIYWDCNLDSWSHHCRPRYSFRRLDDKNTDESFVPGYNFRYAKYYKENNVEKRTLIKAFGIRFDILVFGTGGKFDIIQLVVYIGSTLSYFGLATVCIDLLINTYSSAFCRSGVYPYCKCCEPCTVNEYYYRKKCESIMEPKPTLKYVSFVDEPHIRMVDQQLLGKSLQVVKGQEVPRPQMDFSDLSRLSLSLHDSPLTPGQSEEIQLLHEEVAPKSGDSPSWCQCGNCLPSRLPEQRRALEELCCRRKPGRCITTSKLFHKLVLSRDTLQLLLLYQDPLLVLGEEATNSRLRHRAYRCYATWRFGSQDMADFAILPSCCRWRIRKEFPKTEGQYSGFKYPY
Briefly: Calcium influx into HT-22 cells (Oregon green AM ester). The class given is cell-based. Particulars: 100 μM BzATP, 15 minutes. An excerpt:
Since P2X7R is an ATP-gated ion channel which allows the entry of calcium and sodium ions into cells, a method for identifying P2X7R agonist was established by monitoring calcium influx into HT-22 cells. […] Calcium movement into the cells was visualised under a fluorescent microscope with a fluorescein filter (wavelength 492/517 nm). Oregon green AM ester is a fluorescent dye that binds to intracellular calcium.
Activation of P2X7R by the agonist was inhibited by oATP (FIG. 18) as illustrated by the absence of green fluorescence in the cells.

The target of test [2] is T1, P2X7R. Briefly: Entry of ethidium bromide into HT-22 cells. The format is cell-based. The note with it: HT-22 cells, 60 minutes, 10^−4M ethidium bromide; 1 μM to 1 mM tested. The source says:
Yet another method of measuring P2X7R activity involves the entry of ethidium bromide into P2X7R expressing cells. Activation of P2X7R by an agonist allows the entry of ethidium bromide which binds nuclear DNA and emits a fluorescence signal. Alternatively, the propidium dye YOPRO-1 can be substituted for ethidium bromide. An increase in fluorescence can be used as a measure of P2X7 receptor activation. Therefore, the assay can be used to test and quantify the effect of an agent or compound with agonist properties on P2X7R. In the present example, 10^3 HT-22 cells were seeded per well in a 96-well flat bottom microtitre plates and incubated at 37° C./5% CO2 in DMEM medium containing 10% FCS until the cells attached to the culture surface. […] The number of fluorescent cells which have integrated the ethidium bromide to the DNA can then be counted using a fluorescent microscope (Zeiss, Germany). […] Alternatively, ethidium bromide fluorescence can be measured using a Perkin-Elmer fluorescent plate reader (excitation 520 nm, emission 595 nm, slit widths: Ex 15 nm, Em 20 nm). From the readings obtained, a pIC50 figure can be calculated for each candidate agent or compound. […] The specificity of an agonist for P2X7R can be evaluated by pre-incubation of the cells for 60 minutes with 100 μM o-ATP before adding the agonist and ethidium bromide dye.

Entries after “also recorded” stand apart in the source; their conditions may differ.

With “2′-3′-O-(4-Benzoylbenzoyl)adenosine 5′-triphosphate [BzATP]”, the “calcium influx (green fluorescence)” value in test [1] is given as “Increase calcium influx; also recorded: increase in green fluorescence”. For the same substance, in test [2], the “concentration that increased the number of fluorescent nuclei” value is reported as “above 100 μM”.
